Measurements published in the NIST ThermoML archive (doi:10.1016/j.jct.2018.02.001).

What was measured:
[1] = mn = molality of the nth substance listed, in mol/kg; settings: 100 kPa, Liquid, Vibrating tube method
[2] = 101.33 kPa, Liquid, Vibrating tube method

CCCCCCCCCCCC[n+]1ccn(CC)c1.[Br-] [3-dodecyl-1-ethyl-1H-imidazolium bromide] + O
mass density [kg/m3], [1]
Settings | m1 = 0.0061 | m1 = 0.0074 | m1 = 0.0109 | m1 = 0.015 | m1 = 0.021 | m1 = 0.0257 | m1 = 0.0362 | m1 = 0.0521
293.15 K | 998.38 | 998.42 | 998.52 | 998.64 | 998.81 | 998.94 | 999.24 | 999.68
298.15 K | 997.16 | 997.19 | 997.27 | 997.38 | 997.53 | 997.65 | 997.91 | 998.31
303.15 K | 995.65 | 995.68 | 995.73 | 995.83 | 995.99 | 996.12 | 996.37 | 996.72

CCCCCCCC[n+]1ccn(CCCC)c1.[Br-] [1-butyl-3-octyl-1H-imidazolium bromide]
[2]
Settings | mass density [kg/m3]
293.15 K | 1123.09
298.15 K | 1119.72
303.15 K | 1116.27
308.15 K | 1112.79
313.15 K | 1109.25
318.15 K | 1105.74
323.15 K | 1102.23

CCCCCC[n+]1ccn(CC)c1.[Br-] [1-ethyl-3-hexyl-1H-imidazolium bromide]
[2]
Settings | mass density [kg/m3]
293.15 K | 1197.06
298.15 K | 1193.59
303.15 K | 1190.1
308.15 K | 1186.58
313.15 K | 1183.02
318.15 K | 1179.46
323.15 K | 1175.88

CCCCn1cc[n+](CCCC)c1.[Br-] [1,3-dibutylimidazolium bromide]
[2]
Settings | mass density [kg/m3]
293.15 K | 1197.07
298.15 K | 1193.75
303.15 K | 1190.32
308.15 K | 1186.85
313.15 K | 1183.34
318.15 K | 1180.06
323.15 K | 1176.52

CCCCCCCC[n+]1ccn(CCCC)c1.[Br-] [1-butyl-3-octyl-1H-imidazolium bromide] + O
mass density [kg/m3], [1]
Settings | m1 = 0.0055 | m1 = 0.01 | m1 = 0.015 | m1 = 0.0216 | m1 = 0.0285 | m1 = 0.0346 | m1 = 0.0412 | m1 = 0.0498
293.15 K | 998.38 | 998.55 | 998.75 | 999.02 | 999.32 | 999.58 | 999.85 | 1000.22
298.15 K | 997.16 | 997.36 | 997.53 | 997.77 | 998.04 | 998.28 | 998.54 | 998.88
303.15 K | 995.68 | 995.77 | 995.96 | 996.2 | 996.48 | 996.71 | 996.97 | 997.31
308.15 K | 994.05 | 994.08 | 994.1 | 994.32 | 994.61 | 994.83 | 995.08 | 995.4
